Holding throughout (experiment): microbe, parasite or virus in culture
What all share (format): cell-based
Holding throughout (conditions): for MIC: Mycobacterium tuberculosis, 336 h, read-out: Minimum inhibiting concentration of substances with general formula I

Assay [1] deals with M. tuberculosis MDR strain 7357/1998.
Assay [2] concerns M. tuberculosis MDR strain Praha 131.
Assay [3] relates to M. tuberculosis MDR strain 8666/2010.
Assay [4] has as its system M. tuberculosis MDR strain 234/2005.
In assay [5] the test system is M. tuberculosis MDR strain Praha 4.
Assay [6] deals with M. tuberculosis MDR strain 9449/2007.
Assay [7] has as its system M. tuberculosis MDR strain Praha 1.

Values after ≈ are worked out from the molar mass of the structure shown.

Take `O=[N+]([O-])c1cc(CSc2nc(-c3cccc(Cl)c3)no2)cc([N+](=O)[O-])c1` [Compound 5]: the MIC in assay [1] turned out to be 1 µM (≈ 0.393 µg/mL); in assay [2], 1 µM (≈ 0.393 µg/mL); in assay [3] it was 0.5 µM (≈ 0.196 µg/mL); in assay [4] it was 0.5 µM (≈ 0.196 µg/mL); in assay [5] it was 0.5 µM (≈ 0.196 µg/mL); in assay [6] it was 1 µM (≈ 0.393 µg/mL). Besides, the MIC in assay [7] is 1 µM (≈ 0.393 µg/mL).
As to Gentamicin, the “Minimum inhibiting concentration of commonly used antibiotics and antituberculosis medicaments” value (“Minimum inhibiting concentration” for short) in assay [1] was 1.05 C μmol · l^−1; in assay [2], over 8.37 R μmol · l^−1; in assay [3], 2.09 C μmol · l^−1; in assay [4], 0.26 C μmol · l^−1; in assay [5], 0.52 C μmol · l^−1; in assay [6], 1.05 C μmol · l^−1. Also, the “Minimum inhibiting concentration” value in assay [7] was 1.05 C μmol · l^−1. Also, the “strain resistant or sensitive to the drug” value in assay [1] is recorded as 1.05 C; in assay [2] it was over 8.37 R; in assay [3] it was 2.09 C; in assay [4], 0.26 C; in assay [5] it was 0.52 C; in assay [6], 1.05 C. Further, the “strain resistant or sensitive to the drug” value in assay [7] is 1.05 C.
`O=[N+]([O-])c1cc(CSc2nc(-c3ccc(Br)cc3)no2)cc([N+](=O)[O-])c1` [Compound 9]: the MIC worked out at 1 µM (≈ 0.437 µg/mL) in assay [1]; 1 µM (≈ 0.437 µg/mL) in assay [2]; 0.5 µM (≈ 0.219 µg/mL) in assay [3]; 0.5 µM (≈ 0.219 µg/mL) in assay [4]; 0.5 µM (≈ 0.219 µg/mL) in assay [5]; 0.5 µM (≈ 0.219 µg/mL) in assay [6]. For the same compound, the MIC in assay [7] was 0.5 µM (≈ 0.219 µg/mL).
In the case of `NNC(=O)c1ccncc1` [Isoniazid], the “Minimum inhibiting concentration” value in assay [1] stood at 14.6 R μmol · l^−1; in assay [2] it was 14.6 R μmol · l^−1; in assay [3] it was 29.2 R μmol · l^−1; in assay [4], 14.6 R μmol · l^−1; in assay [5], 14.6 R μmol · l^−1; in assay [6] it was 58.3 R μmol · l^−1. In assay [7], the “Minimum inhibiting concentration” value was determined as 14.6 R μmol · l^−1. Besides, the “strain resistant or sensitive to the drug” value in assay [1] is reported as 14.6 R; in assay [2] it was 14.6 R; in assay [3], 29.2 R; in assay [4] it was 14.6 R; in assay [5], 14.6 R; in assay [6], 58.3 R. Moreover, the “strain resistant or sensitive to the drug” value in assay [7] was 14.6 R.
With `CC(C)/N=c1\cc2n(-c3ccc(Cl)cc3)c3ccccc3nc-2cc1Nc1ccc(Cl)cc1` [Clofazimin], the “Minimum inhibiting concentration” value in assay [1] was found to be 0.13 C μmol · l^−1; in assay [2], 0.26 C μmol · l^−1; in assay [3], 2.11 R μmol · l^−1; in assay [4], 0.06 C μmol · l^−1; in assay [5], 0.53 R μmol · l^−1; in assay [6], 0.13 C μmol · l^−1. The “Minimum inhibiting concentration” value in assay [7] stood at 0.53 R μmol · l^−1. For the same compound, the “strain resistant or sensitive to the drug” value in assay [1] is 0.13 C; in assay [2], 0.26 C; in assay [3] it was 2.11 R; in assay [4] it was 0.06 C; in assay [5], 0.53 R; in assay [6], 0.13 C. Also, the “strain resistant or sensitive to the drug” value in assay [7] is reported as 0.53 R.
